Measurements published in patent US20110039762A1, “TARGETED ANTIMICROBIAL MOIETIES” (C3 JIAN, INC., priority 2009, published 2011).
Entries after “also recorded” stand apart in the source; their conditions may differ.

Tests used:
S. pneumoniae = experiment: Kill or inhibit growth/proliferation; morphology, biofilm and growth disruption (Tables 5, 6); assay type: cell-based, Streptococcus pneumoniae; parameters: key: A: Peptide aggregates; B: Less hyphal formation; Clumps; Diffuse clumps and small polyps; F: Diffuse growth; H: Thin; I: Growth inhibition; Microcolony formation; Rippled; Small polyps; Thick; W: Halo formation on top, microlonies on bottom; note: test concentration or dose not given here
C. jejuni = experiment: as above; assay type: cell-based, Campylobacter jejuni; parameters: key: A: Peptide aggregates; B: Less hyphal formation; Clumps; Diffuse clumps and small polyps; F: Diffuse growth; H: Thin; I: Growth inhibition; Microcolony formation; Rippled; Small polyps; Thick; W: Halo formation on top, microlonies on bottom
S. epidermidis = experiment: as above; assay type: cell-based, Staphylococcus epidermidis; parameters: key: A: Peptide aggregates; B: Less hyphal formation; Clumps; Diffuse clumps and small polyps; F: Diffuse growth; H: Thin; I: Growth inhibition; Microcolony formation; Rippled; Small polyps; Thick; W: Halo formation on top, microlonies on bottom; note: test concentration or dose not given here
E. faecalis = experiment: as above; assay type: cell-based, Enterococcus faecalis; parameters: key: A: Peptide aggregates; B: Less hyphal formation; Clumps; Diffuse clumps and small polyps; F: Diffuse growth; H: Thin; I: Growth inhibition; Microcolony formation; Rippled; Small polyps; Thick; W: Halo formation on top, microlonies on bottom; note: test concentration or dose not given here
MRSA = experiment: as above; assay type: cell-based, Methicillin-resistant Staphylococcus aureus; parameters: key: A: Peptide aggregates; B: Less hyphal formation; Clumps; Diffuse clumps and small polyps; F: Diffuse growth; H: Thin; I: Growth inhibition; Microcolony formation; Rippled; Small polyps; Thick; W: Halo formation on top, microlonies on bottom
[1] = tested on: microorganisms (e.g., bacteria, yeasts, fungi); experiment: Targeting peptide binding to target microorganisms (Table 3); settings: preferably 1x PBS
microorganisms = experiment: Peptides having multiple activities (targeting/binding, antimicrobial, growth or phenotype altering)
Description: In certain embodiments, peptides described herein can have multiple activities. Thus for example, a peptide can have both binding/targeting activity and antimicrobial activity. Such peptides can be used, e.g., in a chimeric construct, for any or all of these properties. Thus, for example, a peptide designated “B” in Table 8 can be used as a targeting peptide. If it is also designated G or M it can also be used for antimicrobial activity.

E. coli = experiment: Kill or inhibit growth/proliferation; morphology, biofilm and growth disruption (Tables 5, 6); assay type: cell-based, Escherichia coli; parameters: key: A: Peptide aggregates; B: Less hyphal formation; Clumps; Diffuse clumps and small polyps; F: Diffuse growth; H: Thin; I: Growth inhibition; Microcolony formation; Rippled; Small polyps; Thick; W: Halo formation on top, microlonies on bottom; note: test concentration or dose not given here
M. luteus = experiment: as above; assay type: cell-based, Micrococcus luteus; parameters: key: A: Peptide aggregates; B: Less hyphal formation; Clumps; Diffuse clumps and small polyps; F: Diffuse growth; H: Thin; I: Growth inhibition; Microcolony formation; Rippled; Small polyps; Thick; W: Halo formation on top, microlonies on bottom; note: test concentration or dose not given here
C. jeikeium = experiment: as above; assay type: cell-based, Corynebacterium jeikeium; parameters: key: A: Peptide aggregates; B: Less hyphal formation; Clumps; Diffuse clumps and small polyps; F: Diffuse growth; H: Thin; I: Growth inhibition; Microcolony formation; Rippled; Small polyps; Thick; W: Halo formation on top, microlonies on bottom
[2] = microorganism(s) the targeting peptide binds, peptide binding conducted in aqueous buffers varied by peptide solubility
[3] = microorganism(s) the targeting peptide binds, binding in aqueous buffers depending on peptide solubility
Throughout, for Organism, effect: test concentration or dose not given here.

Substance	Organism, effect (S. pneumoniae)	Organism, effect (C. jejuni)	Organism, effect (S. epidermidis)	Organism, effect (E. faecalis)	Organism, effect (MRSA)	Target(s) [1, 2]	Activities (microorganisms)	Organism, effect (E. coli)	Organism, effect (M. luteus)	Organism, effect (C. jeikeium)	Target(s) [1, 3]	Target(s) (microorganisms bound by the targeting peptide) ([1]; peptide binding in aqueous buffers varied by peptide solubility)	Target(s) ([1]; microorganism the targeting peptide binds, binding in aqueous buffers varied by peptide solubility)
PF-390: peptide having multiple activities (chain 1 VVAYVITQVGAIRF; chain 2 VVAYVITQVGAIRF; Peptide with targeting and/or antimicrobial activity)	S. pneumoniae (D)	C. jejuni (D)	S. epidermidis (D)	E. faecalis (D)	MRSA (D)	S. epidermidis and P. aeruginosa and C. albicans and MRSA	G B	E. coli (C)	–	–	–	–	–
PF-562: peptide having multiple activities (chain 1 TPEQWLERSTVVVTGLLNRK; chain 2 TPEQWLERSTVVVTGLLNRK; Peptide with targeting and/or antimicrobial activity)	S. pneumoniae (D)	C. jejuni (R)	S. epidermidis (A)	–	MRSA (M)	–	G B	–	M. luteus (R)	–	–	–	–
PF-188: peptide having multiple activities (ARTFAGRLGTRYFGGLMRSTKA; Peptide with targeting and/or antimicrobial activity)	–	–	–	–	–	–	G B	–	–	C. jeikeium (H)	S. epidermidis and M. luteus and E. coli and C. albicans and MRSA and E. faecalis	–	–
PF-135: peptide having multiple activities (PPARPARIPQTPTLHGASLFRQRS; Peptide with targeting and/or antimicrobial activity)	–	–	–	–	–	–	G B	–	–	C. jeikeium (R)	S. epidermidis and M. luteus and E. coli and P. aeruginosa and MRSA and C. jeikeium and M. smegmatis	–	–
PF-598: peptide having multiple activities (MKFMLEVRNKAISAYKEITRTQI; Peptide with targeting and/or antimicrobial activity)	S. pneumoniae (R)	C. jejuni (R)	S. epidermidis (R)	E. faecalis (R)	MRSA (D)	–	G B	E. coli (C)	–	–	–	S. epidermidis and M. luteus and P. mirabilis and P. aeruginosa and C. albicans and MRSA and S. pneumoniae and C. jeikeium	–
PF-586: peptide having multiple activities (FFNQANYFFKEF; Peptide with targeting and/or antimicrobial activity)	S. pneumoniae (D)	C. jejuni (D)	S. epidermidis (C)	E. faecalis (D)	MRSA (D)	–	G B	E. coli (C)	–	–	–	–	–
PF-469: peptide having multiple activities (chain 1 YKVNYNNIDNHFNTLRH; chain 2 YKVNYNNIDNHFNTLRH; Peptide with targeting and/or antimicrobial activity)	S. pneumoniae (D)	C. jejuni (D)	S. epidermidis (D)	E. faecalis (D)	MRSA (D)	–	G B	E. coli (C)	–	–	–	–	–
PF-596: peptide having multiple activities (SKMWDKILTILILILELIRELIKL; Peptide with targeting and/or antimicrobial activity)	S. pneumoniae (D)	C. jejuni (D)	S. epidermidis (D)	E. faecalis (D)	MRSA (D)	–	G B	E. coli (C)	–	–	–	–	–
PF-584: peptide having multiple activities (SYIKNLSNQKFLIAF; Peptide with targeting and/or antimicrobial activity)	S. pneumoniae (D)	C. jejuni (D)	S. epidermidis (C)	E. faecalis (D)	MRSA (D)	S. epidermidis and M. luteus and P. mirabilis and C. albicans and MRSA and S. pneumoniae and E. faecalis and C. jeikeium	G B	E. coli (C)	–	–	–	–	–
PF-363: peptide having multiple activities (chain 1 SMLSVTVMCLMHASVAANQAMEKKV; chain 2 SMLSVTVMCLMHASVAANQAMEKKV; Peptide with targeting and/or antimicrobial activity)	S. pneumoniae (R)	C. jejuni (D)	S. epidermidis (S)	E. faecalis (D)	MRSA (H)	–	G B	E. coli (C)	–	–	B. subtilis; also recorded: E. coli; also recorded: P. aeruginosa; also recorded: C. albicans; also recorded: S. pneumoniae; also recorded: E. faecalis	–	–
PF-011: peptide having multiple activities (chain 1 MFCYYKQHKGDNFSIEEVKNIIADNEMKVN; chain 2 MFCYYKQHKGDNFSIEEVKNIIADNEMKVN; Peptide with targeting and/or antimicrobial activity)	–	–	–	–	MRSA (R)	–	G B	–	–	C. jeikeium (C)	–	–	M. luteus; also recorded: E. coli; also recorded: P. aeruginosa; also recorded: S. pneumoniae; also recorded: C. jeikeium
PF-133: peptide having multiple activities (GDPTAGQKPVECP; Peptide with targeting and/or antimicrobial activity)	–	–	–	–	–	–	G B	–	–	C. jeikeium (R)	S. epidermidis; also recorded: C. jeikeium; also recorded: C. jejuni; also recorded: M. smegmatis	–	–
PF-592: peptide having multiple activities (IMKNYKYFKLFIVKYALF; Peptide with targeting and/or antimicrobial activity)	S. pneumoniae (D)	C. jejuni (S)	S. epidermidis (M)	E. faecalis (D)	MRSA (D)	–	G B	E. coli (C)	–	–	–	–	–
PF-164: peptide having multiple activities (EEVSRALAGIGLGLGCRIG; Peptide with targeting and/or antimicrobial activity)	–	–	–	–	–	–	G B	–	–	C. jeikeium (R)	S. epidermidis; also recorded: M. luteus; also recorded: E. coli; also recorded: C. jeikeium	–	–
